In PubChem BioAssay (NCI):
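All cell lines were grown in 96-well plates and treated with compound for 48 hours. At the TGI there is no net growth.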

Legend:
Test in all cases: NCI-60 cell line screen, 48 h
786-0 renal = tested on: 786-0 renal
HCT-116 colon = tested on: HCT-116 colon
M14 melanoma = tested on: M14 melanoma
M19-MEL melanoma = tested on: M19-MEL melanoma
NCI-H23 lung = tested on: NCI-H23 lung
NCI-H460 lung = tested on: NCI-H460 lung
OVCAR-3 ovarian = tested on: OVCAR-3 ovarian
OVCAR-4 ovarian = tested on: OVCAR-4 ovarian
OVCAR-8 ovarian = tested on: OVCAR-8 ovarian
RXF 393 renal = tested on: RXF 393 renal
SF-295 CNS = tested on: SF-295 CNS
SF-539 CNS = tested on: SF-539 CNS
SK-MEL-2 melanoma = tested on: SK-MEL-2 melanoma
SNB-19 CNS = tested on: SNB-19 CNS
SW-620 colon = tested on: SW-620 colon
UACC-62 melanoma = tested on: UACC-62 melanoma
HCC-2998 colon = tested on: HCC-2998 colon
KM12 colon = tested on: KM12 colon
BT-549 breast = tested on: BT-549 breast
DU-145 prostate = tested on: DU-145 prostate

Row | SMILES | TGI (786-0 renal) [µM] | TGI (HCT-116 colon) [µM] | TGI (M14 melanoma) [µM] | TGI (M19-MEL melanoma) [µM] | TGI (NCI-H23 lung) [µM] | TGI (NCI-H460 lung) [µM] | TGI (OVCAR-3 ovarian) [µM] | TGI (OVCAR-4 ovarian) [µM] | TGI (OVCAR-8 ovarian) [µM] | TGI (RXF 393 renal) [µM] | TGI (SF-295 CNS) [µM] | TGI (SF-539 CNS) [µM] | TGI (SK-MEL-2 melanoma) [µM] | TGI (SNB-19 CNS) [µM] | TGI (SW-620 colon) [µM] | TGI (UACC-62 melanoma) [µM] | TGI (HCC-2998 colon) [µM] | TGI (KM12 colon) [µM] | TGI (BT-549 breast) [µM] | TGI (DU-145 prostate) [µM]
1 | CC(=O)Nc1ccc(C(=O)NN2C(=O)C(Cl)C2c2ccccc2)cc1 (configuration not stated) | > 100 | > 100 | > 100 | > 100 | > 100 | > 100 | > 100 | > 100 | > 100 | > 100 | > 100 | > 100 | > 100 | > 100 | > 100 | > 100 |  |  |  | 
2 | COc1cc(C[S+]2CCCC2)c(SC)cc1C[S+]1CCCC1 | > 100 | > 100 | > 100 | > 100 | > 100 | > 100 | > 100 | > 100 | > 100 | > 100 | > 100 | > 100 | > 100 |  | > 100 | > 100 | > 100 | > 100 |  | 
3 | CC(C)(Cc1ccccc1)NC1=NCCO1 | > 100 | > 100 | > 100 |  | > 100 | > 100 | > 100 | > 100 | > 100 | > 100 | > 100 | > 100 | > 100 | > 100 | > 100 | > 100 | > 100 | > 100 | > 100 | > 100
4 | O=[N+]([O-])c1ccc(Cl)c(C=NC23CC4CC(CC(C4)C2)C3)c1 | > 10 | > 10 | > 10 |  | > 10 | > 10 | > 10 | > 10 | > 7.79 | > 10 | > 10 | 9.9 | > 10 | > 10 | > 10 | > 10 | > 10 | > 10 | > 10 | > 10
5 | Oc1ccc2ccccc2c1/C=C/c1ccc2c(Br)cc(Br)c(O)c2n1 | 19.5 | 11.4 | 26.5 |  | 24.7 | 16.2 | 10 | 33.4 | 20.1 | 24.7 | 18.5 | 13.6 | 29.7 | 25.1 | 25.1 | 24.2 | 23.4 | 30.9 | 26.8 | 25.7
6 | CN(c1ccc(Cl)cc1)S(=O)(=O)c1ccc([N+](=O)[O-])cc1 | > 100 | > 100 | > 100 |  | > 100 | > 100 | > 100 | > 100 | > 100 | > 100 | > 100 | > 100 | > 100 | > 100 | > 100 | > 100 | > 100 | > 100 | > 100 | > 100
7 | CCc1nc(N)nc(N)c1-c1ccc2nn(-c3ccccc3)[n+]([O-])c2c1 | 18.9 | 15.5 | 18.8 |  | 18.2 | 14.8 | 28.3 | 56.6 | 26.8 | 25 | 63.5 | 18.2 | 28.7 | > 70.4 | 18.3 | 17.5 | 20.5 | 41 | 26.3 | 20.1
8 | CC[N+](CC)(CCNCC(N)=O)CC(N)=O | > 10 | > 10 | > 10 |  | > 10 | > 10 | > 10 | > 10 | > 10 | > 10 | > 10 | > 10 | > 10 | > 10 | > 10 | > 10 | > 10 | > 10 | > 10 | > 10
